Measured values reported in article PMC9025560, “A Comparison of Evans Blue and 4-(p-Iodophenyl)butyryl Albumin Binding Moieties on an Integrin αvβ6 Binding Peptide” (Pharmaceutics, 2022).
Like-named read-outs stand apart in the source and are kept apart here.

Legend:
[1] = Biodistribution in mice bearing BxPC-3 xenograft tumors; type: in vivo; conditions: female, athymic nu/nu-nude, mouse, in vivo, total radioactivity; for tissue uptake at 4 h: 4 h p.i.; for tissue uptake at 24 h: 24 h p.i.; for tissue uptake at 48 h: 48 h p.i.
Method in brief: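 Female athymic nu/nu mice bearing subcutaneous BxPC-3 (integrin αvβ6-positive) flank tumors 0.5–1 cm, given [^64Cu]-labelled peptides (3.7–5.55 MBq) i.v. via tail vein. Tissues taken at 4, 24, 48 and 72 h p.i. and γ-counted; decay-corrected uptake reported as % ID/g, mean ± SD.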

[2] = tested on: human serum protein; experiment: Human serum protein binding by ultrafiltration; type: in vitro ADME
Method: (§1) Serum protein binding of [^64Cu]1 and [^64Cu]2 was assessed following the previously reported method. Peptides [^64Cu]1 and [^64Cu]2 were evaluated by ultrafiltration using Centrifree Ultrafiltration devices (EMD) according to the manufacturer’s recommendations. Experiments were carried out in triplicate. The Centrifree Ultrafiltration devices were pretreated with PBS containing Tween 20 (5% v/v), followed by triplicate rinses with PBS. An aliquot of each peptide [^64Cu]1 or [^64Cu]2 in PBS (≤25 μL, 20–60 KBq) was thoroughly mixed with 0.5 mL of serum at 37 °C in a microfuge tube. The mixture was incubated at 37 °C for 5 min, and an aliquot (50 μL) was transferred to a tube for γ-counting. The remaining sample was transferred to a Centrifree Ultrafiltration device and centrifuged for 40 min at 1500 (RCF) at ambient temperature (20–24 °C). An aliquot (50 μL) of the filtrate was transferred to a tube for γ-counting. For each radiolabeled peptide, a blank was run using 0.5 mL PBS/Tween 20 (5% v/v) instead of serum (n = 3) to determine non-specific binding. Following γ-counting, the protein-bound radioactivity was calculated by subtracting the counts measured in the filtrate aliquot (i.e., not protein-bound) from the counts in the corresponding serum aliquot. The data are expressed as mean ± standard deviation of fraction of radioactivity bound to protein after subtraction of non-specific binding determined in the blank.

[3] = tested on: mouse serum protein; experiment: Mouse serum protein binding by ultrafiltration; type: in vitro ADME; conditions: 37 °C
Method: as §1, with “For each radiolabeled peptide, a blank was run using 0.5 mL PBS/Tween 20 (5% v/v) instead of serum (n = 3) to determine non-specific binding.” left out

[4] = Stability in human serum at 37 °C; type: in vitro ADME; conditions: read-out: Stability in human serum, % intact
Method: For serum stability, mouse serum or human serum (0.5 mL, both purchased from Sigma-Aldrich) was combined with an aliquot of each of the peptides [^64Cu]1 and [^64Cu]2 (≤25 μL, 14.8–22.2 MBq) and incubated at 37 °C. At each time point (1, 4, and 24 h) an aliquot (50–200 μL) was taken, proteins precipitated with ethanol, and removed by pelleting at 1500 (RCF) for 4 min. The ethanol solution was diluted with water (1 mL) and analyzed by RP-HPLC as previously described.

[5] = iv, i.v., read-out: Blood uptake
[6] = iv, i.v., read-out: Bone uptake
[7] = iv, i.v., read-out: Brain uptake
[8] = iv, i.v., read-out: BxPC-3 Tumor uptake
[9] = iv, i.v., read-out: Fecal Matter radioactivity
[10] = iv, i.v., read-out: Gall Bladder uptake
[11] = iv, i.v., read-out: Heart uptake
[12] = iv, i.v., read-out: Kidneys uptake
[13] = iv, i.v., read-out: Lg. Intestines uptake
[14] = iv, i.v., read-out: Liver uptake
[15] = iv, i.v., read-out: Lung uptake
[16] = iv, i.v., read-out: Muscle uptake
[17] = iv, i.v., read-out: Pancreas uptake
[18] = iv, i.v., read-out: Skin uptake
[19] = iv, i.v., read-out: Sm. Intestines uptake
[20] = iv, i.v., read-out: Spleen uptake
[21] = iv, i.v., read-out: Stomach uptake
[22] = iv, i.v., read-out: Urine radioactivity

In the case of `Cc1cc(-c2ccc(NC(=O)CCC(=O)NCCCC[C@H](NC(=O)CN3CCN(CC(=O)O)CCN(CC(=O)O)CCN(CC(=O)O)CC3)C(=O)NCCOCCOCCOCCOCCOCCOCCOCCOCCOCCOCCOCCOCCOCCOCCOCCOCCOCCOCCOCCOCCOCCOCCOCCOCCOCCOCCOCCOCCC(=O)N[C@@H](CC(N)=O)C(=O)N[C@@H](C)C(=O)N[C@H](C(=O)N3CCC[C@H]3C(=O)N[C@@H](CC(N)=O)C(=O)N[C@@H](CC(C)C)C(=O)N[C@@H](CCCNC(=N)N)C(=O)NCC(=O)N[C@@H](CC(=O)O)C(=O)N[C@@H](CC(C)C)C(=O)N[C@@H](CCC(N)=O)C(=O)N[C@H](C(=O)N[C@@H](CC(C)C)C(=O)N[C@@H](C)C(=O)N[C@@H](CCC(N)=O)C(=O)N[C@@H](CCCNC(=N)N)C(=O)N[C@H](C(=O)N[C@@H](C)C(=O)N[C@@H](CCCNC(=N)N)C(=O)N[C@H](C(=O)NCCOCCOCCOCCOCCOCCOCCOCCOCCOCCOCCOCCOCCOCCOCCOCCOCCOCCOCCOCCOCCOCCOCCOCCOCCOCCOCCOCCOCCC(N)=O)[C@@H](C)O)C(C)C)C(C)C)C(C)C)c(C)c2)ccc1N=Nc1ccc2c(S(=O)(=O)O)cc(S(=O)(=O)O)c(N)c2c1O` [[^64Cu]1, [^64Cu]Cu DOTA-EB-αvβ6-BP, metal not drawn], the tissue uptake at 4 h [1, 5] is reported as 1.3 ± 0.31 %ID/g, the tissue uptake at 4 h [1, 6] is reported as 0.44 ± 0.04 %ID/g and the tissue uptake at 4 h [1, 7] is reported as 0.09 ± 0.02 %ID/g. For the same compound, the tissue uptake at 4 h [1, 8] was 5.29 ± 0.59 %ID/g, the tissue uptake at 4 h [1, 9] was 3.03 ± 0.67 %ID/g and the tissue uptake at 4 h [1, 10] was 2.12 ± 0.51 %ID/g. It also gave a tissue uptake at 4 h [1, 11] of 0.99 ± 0.08 %ID/g, a tissue uptake at 4 h [1, 12] of 75.5 ± 7.26 %ID/g and a tissue uptake at 4 h [1, 13] of 4.13 ± 0.1 %ID/g. For the same compound, the tissue uptake at 4 h [1, 14] was 1.64 ± 0.2 %ID/g, the tissue uptake at 4 h [1, 15] was 2.71 ± 0.57 %ID/g and the tissue uptake at 4 h [1, 16] was 0.67 ± 0.1 %ID/g. It also gave a tissue uptake at 4 h [1, 17] of 0.46 ± 0.06 %ID/g, a tissue uptake at 4 h [1, 18] of 1.56 ± 0.34 %ID/g and a tissue uptake at 4 h [1, 19] of 4.72 ± 0.55 %ID/g. For the same compound, the tissue uptake at 4 h [1, 20] was 0.32 ± 0.28 %ID/g, the tissue uptake at 4 h [1, 21] was 6.41 ± 0.64 %ID/g and the tissue uptake at 4 h [1, 22] was 19.6 ± 10.5 %ID/g. For the same compound, the tissue uptake at 24 h [1, 5] was 0.33 ± 0.01 %ID/g, the tissue uptake at 24 h [1, 6] was 0.34 ± 0.13 %ID/g and the tissue uptake at 24 h [1, 7] was 0.09 ± 0.01 %ID/g. For the same compound, the tissue uptake at 24 h [1, 8] was 5.03 ± 0.97 %ID/g, the tissue uptake at 24 h [1, 9] was 2.85 ± 0.55 %ID/g and the tissue uptake at 24 h [1, 10] was 1.85 ± 0.27 %ID/g. For the same compound, the tissue uptake at 24 h [1, 11] was 0.92 ± 0.05 %ID/g, the tissue uptake at 24 h [1, 12] was 40.5 ± 7.7 %ID/g and the tissue uptake at 24 h [1, 13] was 3.46 ± 0.45 %ID/g. The tissue uptake at 24 h [1, 14] was 2.09 ± 0.1 %ID/g, the tissue uptake at 24 h [1, 15] was 2.79 ± 1.62 %ID/g and the tissue uptake at 24 h [1, 16] was 0.5 ± 0.2 %ID/g. For the same compound, the tissue uptake at 24 h [1, 17] was 0.48 ± 0.03 %ID/g, the tissue uptake at 24 h [1, 18] was 1.08 ± 0.3 %ID/g and the tissue uptake at 24 h [1, 19] was 2.78 ± 0.31 %ID/g. The tissue uptake at 24 h [1, 20] was 0.56 ± 0.16 %ID/g, the tissue uptake at 24 h [1, 21] was 4.18 ± 0.54 %ID/g and the tissue uptake at 24 h [1, 22] was 5.01 ± 0.29 %ID/g. For the same compound, the tissue uptake at 48 h [1, 5] was 0.33 ± 0.1 %ID/g, the tissue uptake at 48 h [1, 6] was 0.3 ± 0.08 %ID/g and the tissue uptake at 48 h [1, 7] was 0.12 ± 0.02 %ID/g. It also gave a tissue uptake at 48 h [1, 8] of 4 ± 1.51 %ID/g, a tissue uptake at 48 h [1, 9] of 2.34 ± 0.89 %ID/g and a tissue uptake at 48 h [1, 10] of 1.75 ± 0.61 %ID/g. It also gave a tissue uptake at 48 h [1, 11] of 1.02 ± 0.17 %ID/g, a tissue uptake at 48 h [1, 12] of 26.2 ± 5.89 %ID/g and a tissue uptake at 48 h [1, 13] of 2.65 ± 0.05 %ID/g. The tissue uptake at 48 h [1, 14] was 2.59 ± 0.51 %ID/g, the tissue uptake at 48 h [1, 15] was 2.33 ± 0.32 %ID/g and the tissue uptake at 48 h [1, 16] was 0.49 ± 0.07 %ID/g. For the same compound, the tissue uptake at 48 h [1, 17] was 0.41 ± 0.2 %ID/g, the tissue uptake at 48 h [1, 18] was 1.12 ± 0.18 %ID/g and the tissue uptake at 48 h [1, 19] was 1.85 ± 0.07 %ID/g. For the same compound, the tissue uptake at 48 h [1, 20] was 0.5 ± 0.18 %ID/g, the tissue uptake at 48 h [1, 21] was 3.02 ± 0.52 %ID/g and the tissue uptake at 48 h [1, 22] was 3.92 ± 1.05 %ID/g. The tissue uptake at 72 h ([1]; iv, 72 h p.i., i.v., read-out: Blood uptake) was 0.35 ± 0.08 %ID/g, the tissue uptake at 72 h ([1]; iv, 72 h p.i., i.v., read-out: Bone uptake) was 0.25 ± 0.13 %ID/g and the tissue uptake at 72 h ([1]; iv, 72 h p.i., i.v., read-out: Brain uptake) was 0.16 ± 0.04 %ID/g. It also gave a tissue uptake at 72 h ([1]; iv, 72 h p.i., i.v., read-out: BxPC-3 Tumor uptake) of 3.32 ± 0.46 %ID/g, a tissue uptake at 72 h ([1]; iv, 72 h p.i., i.v., read-out: Fecal Matter radioactivity) of 1.81 ± 0.74 %ID/g and a tissue uptake at 72 h ([1]; iv, 72 h p.i., i.v., read-out: Gall Bladder uptake) of 1.75 ± 0.65 %ID/g. The tissue uptake at 72 h ([1]; iv, 72 h p.i., i.v., read-out: Heart uptake) was 1.15 ± 0.2 %ID/g, the tissue uptake at 72 h ([1]; iv, 72 h p.i., i.v., read-out: Kidneys uptake) was 20 ± 6.91 %ID/g and the tissue uptake at 72 h ([1]; iv, 72 h p.i., i.v., read-out: Lg. Intestines uptake) was 1.95 ± 0.29 %ID/g. For the same compound, the tissue uptake at 72 h ([1]; iv, 72 h p.i., i.v., read-out: Liver uptake) was 2.36 ± 0.51 %ID/g, the tissue uptake at 72 h ([1]; iv, 72 h p.i., i.v., read-out: Lung uptake) was 1.88 ± 0.11 %ID/g and the tissue uptake at 72 h ([1]; iv, 72 h p.i., i.v., read-out: Muscle uptake) was 0.44 ± 0.12 %ID/g. The tissue uptake at 72 h ([1]; iv, 72 h p.i., i.v., read-out: Pancreas uptake) was 0.59 ± 0.12 %ID/g, the tissue uptake at 72 h ([1]; iv, 72 h p.i., i.v., read-out: Skin uptake) was 0.88 ± 0.12 %ID/g and the tissue uptake at 72 h ([1]; iv, 72 h p.i., i.v., read-out: Sm. Intestines uptake) was 1.38 ± 0.18 %ID/g. The tissue uptake at 72 h ([1]; iv, 72 h p.i., i.v., read-out: Spleen uptake) was 0.58 ± 0.16 %ID/g, the tissue uptake at 72 h ([1]; iv, 72 h p.i., i.v., read-out: Stomach uptake) was 2.02 ± 0.16 %ID/g and the tissue uptake at 72 h ([1]; iv, 72 h p.i., i.v., read-out: Urine radioactivity) was 3.17 ± 1.58 %ID/g. For the same compound, the tissue uptake at 72 h ([1]; 72 h, read-out: GI uptake) was less than 3.2 %ID/g, the tissue uptake ([1]; throughout 4–72 h, read-out: Liver uptake throughout) was less than 3 %ID/g and the “Binding to human serum protein” value ([2]; 37 °C, ultrafiltration) was 53.4 ± 0.9%. The Serum albumin binding ([2]; abstract, serum species not stated) was 53–63%, the “Binding to mouse serum protein” value [3] was 41.9 ± 1.1% and the remaining at 1 h ([4]; 1 h) was 99%. For the same compound, the remaining at 4 h ([4]; 4 h) was 89% and the remaining at 24 h ([4]; 24 h) was 76%.
